Test results published in PMC4738246, “Conformational dynamics is key to understanding loss-of-function of NQO1 cancer-associated polymorphisms and its correction by pharmacological ligands” (Scientific Reports, 2016).
Where two headings read alike, the source gives them in different places.

Assays:
[1] = system: HeLa cells (expressing WT NQO1); details: 24 h, dicoumarol 100 μM, riboflavin 10 μM
Procedure: (§1) After transferring to polyvinylidene difluoride membranes (GE Healthcare), immunoblotting was carried out using primary monoclonal antibodies anti-NQO1 and anti-β-actin (Santa Cruz Biotechnology) from mouse at 1:500 and 1:10000 dilutions, respectively. As secondary antibody, we used goat anti-mouse IgG-HRP (Santa Cruz Biotechnology) at 1:1000 dilution. Chemiluminiscent detection of bands was carried out using Clarity™ Western ECL Blotting Substrate (Biorad) and analyzed using a luminescent image analyzer LAS-4000 mini (Fujifilm).

[2] = system: HCT 116 cells (heterozygous for p.R139W); details: 24 h, dicoumarol 100 μM, riboflavin 10 μM
Procedure: as §1

[3] = system: Caco-2 cells (homozygous for p.P187S); experiment: Steady-state NQO1 protein levels by immunoblotting, Caco-2 cells; type: cell-based, human; details: 24 h, dicoumarol 100 μM, riboflavin 10 μM, normalized to untreated cells
Procedure: as §1

NQO1 WT [4] = target: T1, NQO1 WT (Homo sapiens, UniProt P15559); experiment: Proteolysis by thermolysin, WT NQO1; details: WT apo-protein vs as purified
Procedure: (§2) Proteolysis was performed at 25 °C in HEPES-KOH 50 mM CaCl2 10 mM pH 7.4 using 20 μM in NQO1 (monomer), and the reaction was initiated by the addition of thermolysin (at a final concentration of 10 pM-1 μM) in a final volume of 200 μL. Proteolysis reactions were performed using the NQO1 proteins as purified or as apo-proteins. […] After normalization of the intensities using that of the control sample in the absence of thermolysin, the Intensity (I) vs. Time (t) profiles were analyzed using a single exponential function:
(§3) where k is the proteolysis rate constant and I0 the initial intensity.

NQO1 p.R139W [5] = target: T2, NQO1 p.R139W (Homo sapiens, UniProt P15559, R139W); experiment: Proteolysis by thermolysin, p.R139W NQO1; details: p.R139W apo-protein vs as purified
Procedure: as §2, §3

NQO1 p.P187S [6] = target: T3, NQO1 p.P187S (Homo sapiens, UniProt P15559, P187S); experiment: Binding affinity by ITC, p.P187S NQO1; details: FAD and dicoumarol stated together
Procedure: After peak integration, binding isotherms were analyzed using a one-type of independent sites model using the software provided by the manufacturer.

NQO1 p.R139W [7] = target: T2, NQO1 p.R139W; design: made in house; details: FAD binding to p.R139W, two-sequential binding sites model, average of two titrations, cited from earlier work
NQO1 p.P187S [8] = target: T3, NQO1 p.P187S; design: made in house; details: FAD binding to p.P187S; single set of sites model; average of two titrations; read-out: Kd1; cited from earlier work
NQO1 WT [9] = target: T1, NQO1 WT; design: made in house; details: FAD binding to WT, two-sequential binding sites model, average of two titrations, cited from earlier work

T1 sequence (P15559 whole entry): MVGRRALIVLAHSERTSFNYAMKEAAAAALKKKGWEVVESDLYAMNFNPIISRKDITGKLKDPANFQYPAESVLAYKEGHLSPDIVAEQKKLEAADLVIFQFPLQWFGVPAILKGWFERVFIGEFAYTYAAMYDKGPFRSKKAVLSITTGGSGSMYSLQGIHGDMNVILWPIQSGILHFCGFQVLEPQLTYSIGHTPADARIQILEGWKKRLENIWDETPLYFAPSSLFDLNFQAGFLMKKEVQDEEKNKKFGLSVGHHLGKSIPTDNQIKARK
T2 sequence (P15559 whole entry R139W): as the sequence (P15559 whole entry) above, with R139W counted along it
T3 sequence (P15559 whole entry P187S): as the sequence (P15559 whole entry) above, with P187S counted along it

increase in the sensitivity towards thermolysin on removal of FAD (NQO1 WT [4]) [fold]	increase in the sensitivity towards thermolysin on removal of FAD (NQO1 p.R139W [5]) [fold]	lower affinity of p.P187S than the WT enzyme (NQO1 p.P187S [6])	Compound	effect on protein levels of WT NQO1 [1]	effect on protein levels of p.R139W NQO1 [2]	enhancement of steady-state levels of p.P187S NQO1 protein [3]	Kd (NQO1 p.R139W [7]; read-out: Kd1) [nM]	Kd (NQO1 p.R139W [7]; read-out: Kd2) [nM]	Kd (NQO1 p.P187S [8]) [nM]	Kd (NQO1 WT [9]; read-out: Kd1) [nM]	Kd (NQO1 WT [9]; read-out: Kd2) [nM]
			Cc1cc2nc3c(=O)[nH]c(=O)nc-3n(C[C@H](O)[C@H](O)[C@H](O)CO)c2cc1C [riboflavin]	small effects	small effects	much lower effect					
200	200	10–100 fold	Cc1cc2nc3c(=O)[nH]c(=O)nc-3n(C[C@H](O)[C@H](O)[C@H](O)COP(=O)(O)OP(=O)(O)OC[C@H]3O[C@@H](n4cnc5c(N)ncnc54)[C@H](O)[C@@H]3O)c2cc1C [FAD]				~3	70	400	~1	60
